Reference: US12370161B2, “Composition for treating atopy or pruritus comprising N-acetyl or N-acyl amino acid” (STEMDR INC., priority 2017, dated 2025)
Entries after “also recorded” stand apart in the source; their conditions may differ.

How the values were obtained:
IL4 [1] = assay: IL4 mRNA in skin tissue by quantitative real-time PCR, Balb/c; format: in vivo, mouse; details: atopy-induced Balb/c mice, normalized to β-actin
Procedure: (§1) After isolating total RNA from the atopy-induced skin tissue using 500 μL of Trizol (Life Technologies, USA) according to the manufacturer's protocol and synthesizing cDNA using the Superscript III reverse transcriptase (Life Technologies, USA), real-time PCR was conducted by reacting with the primers of IL4 and interferon γ to be analyzed. The real-time PCR was conducted on a StepOne Plus PCR cycler (Applied Biosystems) using SYBR Green (Applied Biosystems, Foster City, CA). The mRNA expression data were analyzed by the ΔΔCT method and were normalized to β-actin for gene detection. The primers necessary for the real-time PCR were purchased from Qiagen (USA). […] IL4 is known to induce TH2 response and interferon γ is known to induce TH1 response.

[2] = system: atopic dermatitis-induced Nc/Nga mouse; assay: SCORAD clinical skin score, DNFB-induced atopic dermatitis in Nc/Nga mouse; format: in vivo; details: for atopic dermatitis-treating effect (SCORAD, FIG. 3A) / dermatitis-treating effect of L-, L/D- and D-form (FIG. 6): Nc/Nga atopic dermatitis model; for atopic dermatitis-treating effect (SCORAD, FIG. 3A): 0.1% topical; for dermatitis-treating effect of L-, L/D- and D-form (FIG. 6): 0.1%; for effect in Nc/Nga model (back skin images, FIG. 3B): treated for 7 days, day 22
Procedure: In order to establish a model more similar to an atopy model than that of the Balb/c mice, atopy was induced in Nc/Nga mouse mice. Specifically, after inducing DNFB sensitization by applying 100 μL of 0.35% 2,4-dinitrofluorobenzene (DNFB) in acetone/olive oil (3:1) on the shaved back skin, dermatitis was induced by applying 100 μL of 0.15% DNFB for 4-20 days, every other day. Control mice were treated with a vehicle of the same volume (FIG. 1B).
After dissolving an N-acetyl or N-acylamino acid in phosphate-buffered saline to 0.1%, 200 μL of the solution was applied on the back skin of the mice every day, from day 22 until day 28 for the Balb/c atopic dermatitis model, and from day 15 until day 21 for the Nc/Nga atopic dermatitis model. When the N-acetyl or N-acylamino acid was treated together with DNFB, they were treated with 12-hour intervals in order to avoid direct reaction between the DNFB and the N-acetyl or N-acylamino acid. A non-treated group and a 2,4-dinitrofluorobenzene (DNFB) group were treated with phosphate-buffered saline of the same volume (FIGS. 1A-1B). As the N-acetylamino acid, products purchased from Sigma-Aldrich (USA), MP scientific (USA), TCI (Tokyo Chemical Industry, Japan), Santacruz (USA), etc. were used without purification.
The degree of skin soothing and the severity of atopic dermatitis were evaluated macroscopically according to the previously established SCORAD (SCORing Atopic Dermatitis) method (Oranje et al., 2007). The degree of symptoms such as edema, erythema, eschar, dryness, abrasion, lichenification, etc. was graded from 0 to 3 (0, no symptom; 1, mild; 2, moderate; 3, severe). The overall dermatitis score was determined from the sum of all individual scores (Table 1). The assessment was performed by an investigator who was blind to the grouping of the mice.
Skin-soothing effect and the severity of dermatitis were evaluated for the acyl derivatives of tryptophan synthesized in Example 9, the acyl derivative of alanine synthesized in Example 10 and N-palmitoylalanine (purchased from Santacruz (USA)) according to the method of Example 4 (Table 2)

interferon γ [3] = assay: Interferon γ mRNA in skin tissue by quantitative real-time PCR, Balb/c; format: in vivo, mouse; details: atopy-induced Balb/c mice, normalized to β-actin
Procedure: as §1

[4] = system: pruritus caused by atopic contact dermatitis; assay: Pruritus inhibition test, pruritus induced with DNFB; format: in vivo, mouse; details: 0.1% in physiological saline applied once onto right ear, pruritus measured for 1 hour
Procedure: In order to investigate whether L-form, LID-form and D-form N-acetylalanine, N-acetylarginine, N-acetylthreonine and N-acetyltryptophan inhibit pruritus caused by atopic contact dermatitis, 20 μL of 0.1% 2,4-dinitrofluorobenzene (DNFB) solution and 0.1% N-acetylamino acid dissolved in physiological saline were applied once onto the right ear 10 minutes after the final treatment (day 27) with 2,4-dinitrofluorobenzene (DNFB) (Physiological saline was applied to a negative control group), and then pruritus was measured for 1 hour. FIG. 7 compares the pruritus-relieving effect of L-form N-acetylalanine, N-acetylthreonine, N-acetylarginine and N-acetyltryptophan with D/L-form and D-form N-acetylalanine and N-acetyltryptophan at 0.1% after the induction of pruritus with DNFB.

IL4 [5] = assay: IL4 mRNA in skin tissue by quantitative real-time PCR, Nc/Nga; format: in vivo, mouse; details: atopy-induced Nc/Nga mice, normalized to β-actin
Procedure: as §1

interferon γ [6] = assay: Interferon γ mRNA in skin tissue by quantitative real-time PCR, Nc/Nga; format: in vivo, mouse; details: atopy-induced Nc/Nga mice, normalized to β-actin
Procedure: as §1

[7] = system: atopic dermatitis-induced Nc/Nga mouse; assay: Hematoxylin/eosin staining of back skin tissue, epidermal and dermal thickness; format: in vivo; details: 5 μm slices
Source text: After extracting back skin tissues of the atopic dermatitis-induced and drug-treated Nc/Nga mice of Example 2, the tissues were fixed with an Accustain formalin-free fixative solution and then prepared into paraffin blocks. The paraffin blocks were sliced to a thickness of 5 μm and the change in the thickness of the epidermal and dermal layers was observed by staining with hematoxylin/eosin.

IgE [8] = assay: Serum IgE level by ELISA, Balb/c; format: in vivo, mouse; details: atopy-induced Balb/c mice
Procedure: (§2) After treatment with the test substance, the mice were sacrificed and blood was taken from the heart. After isolating serum from the blood, IgE level was measured. Specifically, after attaching antibodies diluted in a buffer solution onto a 96-well plate and incubating overnight at 4° C., experiment was conducted using an IgE ELISA kit (BD Biosciences, San Diego, CA) according to the provided manual. The quantity of the IgE protein was determined by measuring absorbance at 450 nm using a microplate reader.

[9] = system: atopic dermatitis-induced Balb/c mouse; assay: SCORAD clinical skin score, DNFB-induced atopic dermatitis in Balb/c mouse; format: in vivo; set-up: key to Mouse 1 Sum / Mean (of Sum, SCORAD) / Mouse 2 Sum / Mouse 3 Sum: sum of symptom grades, each 0 (none) to 3 (severe); details: for skin-soothing and atopic dermatitis-treating effect (SCORAD, Table 1, FIG. 2A): Balb/c atopic dermatitis model, 0.1% topical, P<0.05 versus DNFB group; for apparent degree of dermatitis (back skin images, FIG. 2B): Balb/c, treated for 7 days, day 29; for Mouse 1 Erythema / Mouse 1 Abrasion / Mouse 1 Dryness / Mouse 1 Edema / Mouse 1 Eschar / Mouse 1 Lichenification / Mouse 1 Sum / Mouse 2 Abrasion / Mouse 2 Dryness / Mouse 2 Edema / Mouse 2 Erythema / Mouse 2 Eschar / Mouse 2 Lichenification / Mouse 2 Sum / Mouse 3 Abrasion / Mouse 3 Dryness / Mouse 3 Edema / Mouse 3 Erythema / Mouse 3 Eschar / Mouse 3 Lichenification / Mouse 3 Sum / Mean (of Sum, SCORAD): DNFB Balb/c; for Mouse 1 Erythema: 0.1% in PBS, 200 μL on back skin daily day 22-28, grade 0-3 (0 no symptom, 1 mild, 2 moderate, 3 severe); for Mouse 1 Abrasion / Mouse 1 Dryness / Mouse 1 Edema / Mouse 1 Eschar / Mouse 1 Lichenification / Mouse 1 Sum / Mouse 2 Abrasion / Mouse 2 Dryness / Mouse 2 Edema / Mouse 2 Erythema / Mouse 2 Eschar / Mouse 2 Lichenification / Mouse 2 Sum / Mouse 3 Abrasion / Mouse 3 Dryness / Mouse 3 Edema / Mouse 3 Erythema / Mouse 3 Eschar / Mouse 3 Lichenification / Mouse 3 Sum / Mean (of Sum, SCORAD): 0.1% topical day 22-28; for Mouse 1 Abrasion / Mouse 1 Dryness / Mouse 1 Edema / Mouse 1 Eschar / Mouse 1 Lichenification / Mouse 2 Abrasion / Mouse 2 Dryness / Mouse 2 Edema / Mouse 2 Erythema / Mouse 2 Eschar / Mouse 2 Lichenification / Mouse 3 Abrasion / Mouse 3 Dryness / Mouse 3 Edema / Mouse 3 Erythema / Mouse 3 Eschar / Mouse 3 Lichenification: grade 0-3; for Mouse 1 Sum / Mouse 2 Sum / Mouse 3 Sum: overall dermatitis score, sum of individual scores; for Mean (of Sum, SCORAD): mean of 3 mice
Outline: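 Mice sensitized with 0.35% DNFB on shaved back, then challenged with 0.25% DNFB on days 6–27; 0.1% N-acetyl/N-acylamino acid in PBS applied topically daily days 22–28, 12 h apart from DNFB. Blinded SCORAD: six symptoms each graded 0–3, summed.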

IgE [10] = assay: Serum IgE level by ELISA, Nc/Nga; format: in vivo, mouse; details: atopy-induced Nc/Nga mice
Procedure: as §2

[11] = listed as L-form N-acetylalanine
[12] = listed as L-form N-acetyltryptophan

Compound	level of IL4 in the skin tissue (FIG. 5A) (IL4 [1])	atopic dermatitis-treating effect (SCORAD, FIG. 3A) [2]	effect in Nc/Nga model (back skin images, FIG. 3B) [2]	level of interferon γ in the skin tissue (FIG. 5A) (interferon γ [3])	level of IL4 in the skin tissue (FIG. 5B) (IL4 [5])	level of interferon γ in the skin tissue (FIG. 5B) (interferon γ [6])	thickness of the epidermal and dermal layers (FIG. 3C) [7]	serum IgE level (FIG. 4A) (IgE [8])	skin-soothing and atopic dermatitis-treating effect (SCORAD, Table 1, FIG. 2A) [9]	apparent degree of dermatitis (back skin images, FIG. 2B) [9]	Mouse 1 Erythema [9]	Mouse 1 Abrasion [9]	Mouse 1 Dryness [9]	Mouse 1 Edema [9]	Mouse 1 Eschar [9]	Mouse 1 Lichenification [9]	Mouse 1 Sum [9]	Mouse 2 Abrasion [9]	Mouse 2 Dryness [9]	Mouse 2 Edema [9]	other results
CC(=O)N[C@@H](C)C(=O)O [N-acetyl-L-alanine]	significantly decreased	showed atopic dermatitis-treating effect	remarkable effect	significantly decreased	significantly decreased	significantly decreased	significantly decreased	significant decrease	significant skin-soothing and atopic dermatitis-treating effects; also recorded: significant atopic dermatitis-treating effect	decreased remarkably	1	1	2	1	1	0	6	1	0	1	dermatitis-treating effect of L-, L/D- and D-form (FIG. 6) [2, 11]: remarkable effect; pruritus-relieving effect (FIG. 7) [4, 11]: significantly inhibited pruritus; Mouse 2 Erythema [9]: 1; Mouse 2 Eschar [9]: 1; Mouse 2 Lichenification [9]: 0; Mouse 2 Sum [9]: 4; Mouse 3 Abrasion [9]: 1; Mouse 3 Dryness [9]: 0; Mouse 3 Edema [9]: 1; Mouse 3 Erythema [9]: 1; Mouse 3 Eschar [9]: 1; Mouse 3 Lichenification [9]: 1; Mouse 3 Sum [9]: 5; Mean (of Sum, SCORAD) [9]: 5; serum IgE level (FIG. 4B) (IgE [10]): significant decrease
CC(=O)N[C@@H](Cc1c[nH]c2ccccc12)C(=O)O [N-acetyl-L-tryptophan]	significantly decreased	showed atopic dermatitis-treating effect	remarkable effect	significantly decreased	significantly decreased	significantly decreased	significantly decreased	significant decrease	significant skin-soothing and atopic dermatitis-treating effects; also recorded: significant atopic dermatitis-treating effect	decreased remarkably	1	1	0	1	1	1	5	0	1	1	dermatitis-treating effect of L-, L/D- and D-form (FIG. 6) [2, 12]: remarkable effect; pruritus-relieving effect (FIG. 7) [4, 12]: significantly inhibited pruritus; Mouse 2 Erythema [9]: 0; Mouse 2 Eschar [9]: 1; Mouse 2 Lichenification [9]: 0; Mouse 2 Sum [9]: 3; Mouse 3 Abrasion [9]: 2; Mouse 3 Dryness [9]: 0; Mouse 3 Edema [9]: 0; Mouse 3 Erythema [9]: 0; Mouse 3 Eschar [9]: 2; Mouse 3 Lichenification [9]: 0; Mouse 3 Sum [9]: 4; Mean (of Sum, SCORAD) [9]: 4; serum IgE level (FIG. 4B) (IgE [10]): significant decrease
